Experimental data published in patent publication US9808439B2 (Macau University of Science and Technology, priority 2015, dated 2017).
Where two headings read alike, the source gives them in different places.

Columns and labels:
A2780/T cells [1] = experiment: SRB cell cytotoxicity assay in A2780/T; details: for fold reversal / IC50: A2780/T; for IC50: read-out: IC50 ± SD
Experimental: Sulphorhodamine B (SRB) assays were carried out as previously described to assess cell density, based on sensitive measure of total cellular protein, which performed similarly compared with other proliferation assays such as MTT assay. Briefly, cells were seeded into flat bottomed 96-well plates at an initial density of 7.5×10^3 per well before treatment. […] After removing the medium, cells were fixed in 10% trichloroacetic acid for 1 h at 4° C. and then washed with water five times. 0.4% SRB dissolved in 1% v/v acetic acid was added and incubated 30 mm for staining. The cells were quickly washed with 1% acetic acid and left to dry overnight. The protein bound SRB was solubilized by adding 200 μl 10 mM Tris buffer per well and measured at wavelengths 490 nm using a plate reader (Spectra MAX 250; Molecular Devices, Sunnyvale, Calif.).

A549/T cells = experiment: SRB cell cytotoxicity assay in A549/T; assay type: cell-based, human; details: for IC50: Homo sapiens
A2780/T cells [2] = experiment: Apoptosis by Annexin-V/PI double staining; assay type: cell-based, human; details: 7.53 μM tangeretin or 0.94 μM PTX alone
Experimental: After treatment, 1×10^6 cells were collected, washed and suspended in 100 μl of binding buffer (10 mM N-2-hydroxyethylpiperazine-N,-2-ethanesulfonic acid/NaOH, 140 mM NaCl, 2.5 mM CaCl2, pH 7.4). Apoptotic cells were identified by double supravital staining with 5 μl recombinant FITC (fluorescein isothiocyanate)-conjugated Annexin-V and 5 μl PI (50 μg/ml). The cells were stained for […] at room temperature in the dark, and analyzed by fluorescence-activated cell sorting cater-plus flow cytometry. Data acquisition and analysis were performed in BD FACS Aria with FlowJo software.

A2780/T cells [3] = experiment: Cell cycle analysis by flow cytometry in A2780/T; assay type: cell-based, human; details: 48 h
Experimental: (§1) A2780/T cells were harvested after 24-hours, 48-hour, or 72-hour treatment and washed twice with ice-cold PBS. The cells were fixed and permeabilized with 70% ice-cold ethanol overnight at 4° C. or −20° C. for 2 h. After one additional wash in PBS, cells were stained with a staining solution containing PI ([…]) and RNase A (250 μg/ml) for […] at room temperature. They were then pelleted, washed and suspended in PBS to a final concentration of 1×10^6/ml and analyzed by flow cytometry (BD FACS Aria, BD Biosciences, San Jose, Calif.).

A2780 cells = experiment: Cell cycle analysis by flow cytometry in A2780; assay type: cell-based, human; details: A2780, PTX 0.01 μM
Experimental: as §1

A2780/T cells [4] = experiment: Combination index, Chou-Talalay method (CalcuSyn); assay type: cell-based, human
Experimental: Combination index (CI) was calculated to quantitatively depict synergistic ([…], additive (CI=1), or antagonistic (CI>1) effect. With the use of CalcuSyn software v. 2.1 (Bio-soft), synergy is further refined as synergism (combination index=0.3-0.7), strong synergism (combination index=0.1-0.3), and very strong synergism (combination index<0.1).

p53 = experiment: Western blot of p53 expression; assay type: cell-based, human; details: PTX in combination with tangeretin
Experimental: The total cellular samples were harvested and rinsed twice with ice-cold PBS buffer. Cell extracts were lysed in RIPA buffer (50 mM Tris (pH 7.4), 150 mM NaCl, 1% Triton X-100, 1% sodium deoxycholate, 0.1% SDS, sodium orthovanadate, sodium fluoride and EDTA) containing protease inhibitor cocktails (Roche Life Science, USA). Protein concentration was determined using the BCA protein assay kit. Equal amounts of cell lysates were resolved by SDS-PAGE and subsequently electrophoretically transferred onto PVDF membranes (Millipore, Darmstadt, Germany). After blocking in tris-buffered saline containing 0.1% of Tween20 (TBST) with 5% (w/v) skim milk (Nestle Carnation, New Zealand) for 2 h at room temperature, the membranes were incubated with primary and secondary antibodies and subsequently visualized with an enhanced chemiluminescence detection kit (Thermo Scientific™ SuperSignal™ West Pico Chemiluminescent Substrate, USA). β-Actin was used as the loading control for the experimental data analysis.

A2780/T cells [5] = experiment: Intracellular accumulation of DOX and Flutax-2 in A2780/T; assay type: cell-based, human; details: 8 h, 7.53 μM tangeretin or 20 μM QND
Experimental: cells (5×10^6) were cultured on the cover glass (ISO LAB 20×20 mm). […] After treatment, cells were fixed in 4 wt % formaldehyde (Sigma-Aldrich). Nuclear DNA was stained with 1 μg/mL blue-fluorescent DAPI (1 mg/mL in H2O stock solution; Invitrogen D1306). One drop of fluorescent preservation solution (fluorsave reagent, CALBIOCHEM) was added before observation. Imaging was carried out for comparing the intracellular accumulation of DOX and flutax-2 with a Fluorescence Microscopy (Leica DM2500, Leica, Germany). […] Cells were detached, re-suspended in 500 μl of PBS after washed twice with cold PBS, and analyzed by flow cytometry (BD FACS Aria, BD Biosciences, San Jose, Calif.). Excitation and emission wavelengths (nm) used for DOX and flutax-2 were as follows: 480 to 585; and 496 to 524.

[6] = A549, 48 h, A549/T, 48 h, drug alone, read-out: IC50 ± SD
[7] = A549, A549/T, +0.84 μM TG, read-out: IC50 ± SD
[8] = A549, A549/T, +5.21 μM TG, read-out: IC50 ± SD
[9] = A549, A549/T, +7.53 μM TG, read-out: IC50 ± SD
[10] = 0.94 μM PTX with 7.53 μM tangeretin
[11] = 0.94 μM PTX, absence of tangeretin

| Compound | fold reversal (A2780/T cells [1]; +0.84 μM TG) | fold reversal (A2780/T cells [1]; +5.21 μM TG) | fold reversal (A2780/T cells [1]; +7.53 μM TG) | fold reversal (A2780/T cells [1]; drug alone) | IC50 (A2780/T cells [1]; 48 h, drug alone) | IC50 (A2780/T cells [1]; +0.84 μM TG) | IC50 (A2780/T cells [1]; +5.21 μM TG) | IC50 (A2780/T cells [1]; +7.53 μM TG) | fold reversal (A549/T cells; A549/T, +0.84 μM TG) | fold reversal (A549/T cells; A549/T, +5.21 μM TG) | fold reversal (A549/T cells; A549/T, +7.53 μM TG) | fold reversal (A549/T cells; A549/T, drug alone) | IC50 (A549/T cells; [6]) | IC50 (A549/T cells; [7]) | IC50 (A549/T cells; [8]) | IC50 (A549/T cells; [9]) | fold reversal (A549/T cells; A549/T, +2.51 μM TG) | also measured |
| --- | --- | --- | --- | --- | --- | --- | --- | --- | --- | --- | --- | --- | --- | --- | --- | --- | --- | --- |
| CC(=O)O[C@@]12CO[C@@H]1C[C@H](O)[C@@]1(C)C(=O)[C@H](O)C3=C(C)[C@@H](OC(=O)[C@H](O)[C@@H](NC(=O)OC(C)(C)C)c4ccccc4)C[C@@](O)([C@@H](OC(=O)c4ccccc4)[C@H]21)C3(C)C [Docetaxel, docetaxel] | 1.99 | 7.95 | 33.66 | 1.00 | 28.4 ± 4.59 µM | 14.2 ± 2.31 µM | 3.57 ± 0.58 µM | 0.84 ± 0.07 µM | 1.58 | 3.82 | 12.07 | 1.00 | 12.7 ± 2.06 µM | 7.8 ± 1.29 µM | 3.36 ± 0.28 µM | 1.06 ± 0.08 µM | – | – |
| CC(=O)O[C@H]1C(=O)[C@@]2(C)[C@H]([C@H](OC(=O)c3ccccc3)[C@]3(O)C[C@H](OC(=O)[C@H](O)[C@@H](NC(=O)c4ccccc4)c4ccccc4)C(C)=C1C3(C)C)[C@]1(OC(C)=O)CO[C@@H]1C[C@@H]2O [Paclitaxel, paclitaxel] | 1.59 | 5.66 | 18.88 | 1.00 | 2.51 µM | 1.58 ± 0.04 µM | 0.45 ± 0.07 µM | 0.14 ± 0.02 µM | 2.67 | 9.52 | 80.05 | 1.00 | 2.53 ± 0.41 µM | 1.03 ± 0.33 µM | 0.27 ± 0.02 µM | 0.03 ± 0.01 µM | 9.52 | mean IC50 in A2780/T greater than that of A2780 (degree of resistance) (A2780/T cells [1]; A2780/T versus parental A2780): 501 fold; apoptosis induction, single treatment (A2780/T cells [2]): did not show apoptosis induction; G1 phase cells (A2780/T cells [3]; [10]): 13.87%; G2 phase cells (A2780/T cells [3]; [10]): 72.37%; G1 phase cells (A2780/T cells [3]; [11]): 68.30%; G2 phase cells (A2780/T cells [3]; [11]): 18.87%; G1 phase content (A2780 cells; 24 hours): 30.95%; G2-M content (A2780 cells; 24 hours): 52.63%; G1 phase content (A2780 cells; 48 hours): 14.13%; G2-M content (A2780 cells; 48 hours): 62.33%; G1 phase content (A2780 cells; 72 hours): 13.07%; G2-M content (A2780 cells; 72 hours): 74.20%; EC50 (A2780/T cells [4]; Homo sapiens, CalcuSyn simulation, alone or in combination, read-out: Dose PTX at Fa 0.5 (ED50)): 3.61 µM; decrease for the ED50 dose of PTX (A2780/T cells [4]; combination with tangeretin versus PTX alone): 18 fold; accumulation of p53 (p53): accumulation of p53 |
| C=C[C@H]1C[N@@]2CC[C@H]1C[C@@H]2[C@@H](O)c1ccnc2ccc(OC)cc12 [QND, quinidine] | – | – | – | – | – | – | – | – | – | – | – | – | – | – | – | – | – | intracellular accumulations of DOX and Flutax-2 (A2780/T cells [5]): higher than that of untreated A2780/T |
| O=c1[nH]cc(F)c(=O)[nH]1 [5-Fluorouracil, 5-fluorouracil] | – | – | 6.31 | 1.00 | 179 ± 29 µM | – | – | 28.4 ± 4.6 µM | – | – | 6.05 | 1.00 | 142 ± 23.1 µM | – | – | 23.8 ± 1.93 µM | 2.12 | fold reversal (A2780/T cells [1]; +0.83 μM TG): 1.19; fold reversal (A2780/T cells [1]; +2.51 μM TG): 2.12; IC50 (A2780/T cells [1]; +0.83 μM TG): 152 ± 36.7 µM; IC50 (A2780/T cells [1]; +2.51 μM TG): 84.3 ± 6.56 µM; fold reversal (A549/T cells; A549/T, +0.83 μM TG): 1.34; IC50 (A549/T cells; A549, A549/T, +0.83 μM TG, read-out: IC50 ± SD): 106 ± 8.63 µM; IC50 (A549/T cells; A549, A549/T, +2.51 μM TG, read-out: IC50 ± SD): 67 ± 5.44 µM |
| COc1cccc2c1C(=O)c1c(O)c3c(c(O)c1C2=O)C[C@@](O)(C(C)=O)C[C@@H]3O[C@H]1C[C@H](N)[C@H](O)[C@H](C)O1 [Daunorubicin, daunorubicin] | 1.34 | 2.25 | 8.03 | 1.00 | 7.51 ± 0.61 µM | 5.66 ± 0.92 µM | 3.4 ± 0.82 µM | 0.96 ± 0.23 µM | 1.41 | 2.25 | 6.36 | 1.00 | – | – | – | – | – | IC50 (A549/T cells; A549, 48 h, read-out: IC50 ± SD, A549/T, 48 h, drug alone): 6.7 ± 0.54 µM; IC50 (A549/T cells; A549, read-out: IC50 ± SD, A549/T, +0.84 μM TG): 4.74 ± 0.38 µM; IC50 (A549/T cells; A549, read-out: IC50 ± SD, A549/T, +5.21 μM TG): 2.99 ± 0.24 µM; IC50 (A549/T cells; A549, read-out: IC50 ± SD, A549/T, +7.53 μM TG): 1.06 ± 0.08 µM |
